Legend:
Assay type in all cases: cell-based, human
[1] = test system: PCNA isoform in MDA MB468 cells (p53-mutant); assay: 2D-PAGE anti-PCNA immunoblot after DOX exposure, MDA MB468; conditions: 5 μM DOX
Method: (§1) FIG. 7A is a Western blot analysis of p53 wild-type (MCF7) and p53-mutant (MDA-MB-468) breast carcinoma cell lines exposed to 5 μM DOX for the indicated times. Cell extracts (200 μg) were resolved by 2D-PAGE and immunoblotted with anti-PCNA antibodies. In FIG. 7B extracts from MCF7 cells (50 μg) treated with 5 μM DOX were separated by 12% SDS-PAGE and immunoblotted with anti-p21WAF1 antibodies. FIG. 7C is a Western blot analysis of glutathione-immobilized GST-p21 and GST-PIP (a.a. 139-160) fusion proteins incubated with untreated MCF7 cell extracts for 2 h at 4° C. and the pull-down fractions were resolved by 2D-PAGE and Western blotted for PCNA. PCNA isoforms were isolated from MCF7 extracts by incubation with PIP-affinity beads for ˜2 h and analyzed by 2D-PAGE using pH 4-7 IPG strips. Colloidal Coomassie stained spots (See FIG. 7D) were excised from the gel, trypsin digested, and sequenced by LC-MS/MS.
(§2) 2D-PAGE and mass spectrometry. Isoelectric focusing was performed using IPG strips and an IEF cell (BioRad) as previously described (Hoelz, D. J. et al. Proteomics 6, 4808-4816, 2006). […] Anti-PCNA (PC10) antibodies were obtained from Santa Cruz Biotech and anti-WAF1 (DF10) were from EMD Biosciences.
(§3) Although the description of Arm1 identifies a novel posttranslational mechanism in eukaryotic cells, its biological significance was still unclear. […]

[2] = test system: p21WAF1/CIP1 in MCF7 cells; assay: Immunoblot with anti-p21WAF1 antibodies after DOX treatment; conditions: 5 μM DOX, 4 h after treatment
[3] = test system: PCNA isoform in MCF7 cells (p53 wild-type); assay: 2D-PAGE anti-PCNA immunoblot after DOX exposure, MCF7; conditions: high-dose (5 μM) DOX
Method: as §1, §2, §3

COc1cccc2c1C(=O)c1c(O)c3c(c(O)c1C2=O)C[C@@](O)(C(=O)CO)C[C@@H]3O[C@H]1C[C@H](N)[C@H](O)[C@H](C)O1 [DOX, doxorubicin] was tested, and the “basic-shifted (methyl esterified) PCNA isoform” value [1] was “unable to identify the isoform”, the “induction of p21 expression” value [2] was “over 27 fold” and the “basic-shifted (methyl esterified) PCNA isoform, pI ~5.6” value [3] was “induced”.
